17 compounds from PubChem BioAssay AID248 (DTP/NCI, 2004) can be followed below.

This assay has as its system L1210 leukemia ip in BDF1 mice, survival T/C. Description: NCI In Vivo Anticancer Drug Screen. Data for tumor model L1210 Leukemia (intraperitoneal) in B6D2F1 (BDF1) mice. Particulars: higher = longer survival. Summed up:
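Read-out is survival time, reported as the treated-group measurement over the vehicle-control measurement.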

[1] abbreviates: endpoint: mean survival time, dose: 100.0 mg/kg/injection, schedule: Q04DX003 (ip), vehicle: Klucel (hydroxypropylcellulose) (HPC).
Where [2] appears, read: endpoint: mean survival time, dose: 200.0 mg/kg/injection, schedule: Q04DX003 (ip), vehicle: Klucel (hydroxypropylcellulose) (HPC).
Where [3] appears, read: endpoint: mean survival time, dose: 400.0 mg/kg/injection, schedule: Q04DX003 (ip), vehicle: Klucel (hydroxypropylcellulose) (HPC).
[4] abbreviates: endpoint: mean survival time, dose: 100.0 mg/kg/injection, schedule: Q01DX009 (ip), vehicle: saline with Tween-80.
Setting [5] is: endpoint: mean survival time, dose: 200.0 mg/kg/injection, schedule: Q01DX009 (ip), vehicle: saline with Tween-80.
Setting [6] is: endpoint: mean survival time, dose: 25.0 mg/kg/injection, schedule: Q01DX009 (ip), vehicle: saline.
Setting [7] is: endpoint: mean survival time, dose: 50.0 mg/kg/injection, schedule: Q01DX009 (ip), vehicle: saline.
Where [8] appears, read: endpoint: mean survival time, dose: 100.0 mg/kg/injection, schedule: Q01DX009 (ip), vehicle: saline.
Where [9] appears, read: endpoint: mean survival time, dose: 100.0 mg/kg/injection, schedule: Q04DX003 (ip), vehicle: saline.
[10] abbreviates: endpoint: mean survival time, dose: 200.0 mg/kg/injection, schedule: Q01DX009 (ip), vehicle: saline.
[11] abbreviates: endpoint: mean survival time, dose: 100.0 mg/kg/injection, schedule: Q01DX001 (ip), vehicle: saline.
The mark [12] stands for this setting: endpoint: mean survival time, dose: 200.0 mg/kg/injection, schedule: Q01DX001 (ip), vehicle: saline.

“And” between values parts separate entries of the source, which are not always exact repeats. Equal entries are not always repeated. Inconclusive results and toxic doses are left out.

Regarding `O=C(O)c1cccc([N+](=O)[O-])c1O`, the T/C is, setting by setting: (endpoint: mean survival time, dose: 12.5 mg/kg/injection, schedule: Q04DX002 (ip), vehicle: saline with Tween-80) 95 % of control; (endpoint: mean survival time, dose: 25.0 mg/kg/injection, schedule: Q04DX002 (ip), vehicle: saline with Tween-80) 95 % of control; (endpoint: mean survival time, dose: 50.0 mg/kg/injection, schedule: Q01DX001 (ip), vehicle: carboxymethylcellulose (CMC)) 97 % of control; (endpoint: mean survival time, dose: 50.0 mg/kg/injection, schedule: Q04DX002 (ip), vehicle: saline with Tween-80) 100 % of control; (endpoint: mean survival time, dose: 100.0 mg/kg/injection, schedule: Q01DX001 (ip), vehicle: carboxymethylcellulose (CMC)) 87 % of control; (endpoint: mean survival time, dose: 100.0 mg/kg/injection, schedule: Q01DX009 (ip), vehicle: Klucel (hydroxypropylcellulose) (HPC)) 103 % of control. The T/C runs as follows: under setting [1], 93 % of control; (endpoint: mean survival time, dose: 200.0 mg/kg/injection, schedule: Q01DX001 (ip), vehicle: carboxymethylcellulose (CMC)) 87 % of control; (endpoint: mean survival time, dose: 200.0 mg/kg/injection, schedule: Q01DX009 (ip), vehicle: Klucel (hydroxypropylcellulose) (HPC)) 95 % of control; under setting [2], 90 % of control; (endpoint: mean survival time, dose: 400.0 mg/kg/injection, schedule: Q01DX001 (ip), vehicle: carboxymethylcellulose (CMC)) 92 % of control; (endpoint: mean survival time, dose: 400.0 mg/kg/injection, schedule: Q01DX009 (ip), vehicle: Klucel (hydroxypropylcellulose) (HPC)) 93 % of control. Moreover, under setting [3], the T/C is 96 % of control.

For the compound `CCOCc1c(COc2ccc(Br)cc2)n(C)c2ccccc12`, the T/C runs as follows: (endpoint: mean survival time, dose: 25.0 mg/kg/injection, schedule: Q01DX009 (ip), vehicle: saline with Tween-80) 100 % of control; (endpoint: mean survival time, dose: 50.0 mg/kg/injection, schedule: Q01DX009 (ip), vehicle: saline with Tween-80) 89 % of control and 90 % of control; under setting [4], 90 % of control; under setting [5], 99 % of control.

For the compound `OCC1OC(OC2C(CO)OCC(O)C2O)C(O)C(O)C1O` (stereo not given), the T/C runs as follows: (endpoint: mean survival time, dose: 100.0 mg/kg/injection, schedule: Q04DX002 (ip), vehicle: saline with Tween-80) 100 % of control; (endpoint: mean survival time, dose: 200.0 mg/kg/injection, schedule: Q04DX002 (ip), vehicle: saline with Tween-80) 100 % of control; (endpoint: mean survival time, dose: 400.0 mg/kg/injection, schedule: Q04DX002 (ip), vehicle: saline with Tween-80) 88 % of control.

`O=C1Nc2c(Cl)cccc2C1=O`: the T/C by setting is: under setting [6], 92 % of control; (endpoint: mean survival time, dose: 25.0 mg/kg/injection, schedule: Q04DX003 (ip), vehicle: saline) 98 % of control; under setting [7], 94 % of control; (endpoint: mean survival time, dose: 50.0 mg/kg/injection, schedule: Q04DX003 (ip), vehicle: saline) 98 % of control; under setting [8], 92 % of control; under setting [9], 96 % of control.

Consider `CCC[As](=O)(O)CC`, for which the T/C runs as follows: under setting [8], 103 % of control; under setting [10], 105 % of control.

`O=C(Nc1ccc(S(=O)(=O)O)cc1)c1ccc(C(=O)Nc2ccc(S(=O)(=O)O)cc2)cc1`: the T/C (endpoint: mean survival time, dose: 30.0 mg/kg/injection, schedule: Q01DX Z (ip), vehicle: saline) was 91 % of control; the T/C (endpoint: mean survival time, dose: 60.0 mg/kg/injection, schedule: Q01DX Z (ip), vehicle: saline) was 97 % of control; the T/C (endpoint: mean survival time, dose: 120.0 mg/kg/injection, schedule: Q01DX Z (ip), vehicle: saline) was 93 % of control.

With `Nc1nc(N)c(N=Nc2ccc(S(=O)(=O)O)cc2)c(N)n1`, the T/C was 102 % of control (endpoint: mean survival time, dose: 100.0 mg/kg/injection, schedule: Q04DX003 (ip), vehicle: saline with Tween-80); 102 % of control (endpoint: mean survival time, dose: 200.0 mg/kg/injection, schedule: Q04DX003 (ip), vehicle: saline with Tween-80); 104 % of control (endpoint: mean survival time, dose: 400.0 mg/kg/injection, schedule: Q04DX003 (ip), vehicle: saline with Tween-80).

`O=C1C=C(Nc2ccc(N(CCCl)CCCl)cc2)c2ccccc2C1=O`: the T/C runs as follows: under setting [1], 107 % of control; under setting [2], 114 % of control; under setting [3], 95 % of control.

On to `CCOC(=O)C(C)C(O)c1ccc(OC)cc1` (stereo not given), for which the T/C runs as follows: under setting [4], 93 % of control; under setting [5], 93 % of control.

With `Cc1cccc(C(Cc2ccc(N3C(N)=NC(N)=NC3(C)C)cc2)C(=O)Nc2ccc(S(=O)(=O)F)cc2)c1` (stereo not given), the T/C under setting [11] was 108 % of control; the T/C under setting [12] was 110 % of control; the T/C (endpoint: mean survival time, dose: 400.0 mg/kg/injection, schedule: Q01DX001 (ip), vehicle: saline) was 98 % of control.

Consider `CC[C@H]1CN2CCc3cc(OC)c(OC)cc3[C@@H]2C[C@@H]1C[C@H]1NCCc2c1[nH]c1ccc(O)cc21`, for which the T/C (endpoint: mean survival time, dose: 0.25 mg/kg/injection, schedule: Q01DX006 (ip), vehicle: saline) was 109 % of control; the T/C (endpoint: mean survival time, dose: 0.5 mg/kg/injection, schedule: Q01DX006 (ip), vehicle: saline) was 117 % of control; the T/C (endpoint: mean survival time, dose: 2.0 mg/kg/injection, schedule: Q01DX005 (ip), vehicle: saline) is 121 % of control; the T/C (endpoint: mean survival time, dose: 4.0 mg/kg/injection, schedule: Q01DX005 (ip), vehicle: saline) was 108 % of control; the T/C (endpoint: mean survival time, dose: 4.0 mg/kg/injection, schedule: Q04DX003 (ip), vehicle: saline) was 114 % of control; the T/C (endpoint: mean survival time, dose: 125.0 micrograms/kg/injection, schedule: Q01DX009 (ip), vehicle: saline) is 108 % of control. Further, the T/C is 118 % of control (endpoint: mean survival time, dose: 250.0 micrograms/kg/injection, schedule: Q01DX009 (ip), vehicle: saline); 120 % of control (endpoint: mean survival time, dose: 500.0 micrograms/kg/injection, schedule: Q01DX009 (ip), vehicle: saline); 109 % of control (endpoint: mean survival time, dose: 1000.0 micrograms/kg/injection, schedule: Q01DX009 (ip), vehicle: saline); 108 % of control (endpoint: median survival time, dose: 1.0 mg/kg/injection, schedule: Q04DX003 (ip), vehicle: saline + alcohol); 118 % of control (endpoint: median survival time, dose: 2.0 mg/kg/injection, schedule: Q04DX003 (ip), vehicle: saline + alcohol).

For the compound `CCOc1ccc(CCOC(C)=O)cc1`, the T/C (endpoint: mean survival time, dose: 100.0 mg/kg/injection, schedule: Q04DX002 (ip), vehicle: Klucel (hydroxypropylcellulose) (HPC)) was 97 % of control; the T/C (endpoint: mean survival time, dose: 200.0 mg/kg/injection, schedule: Q04DX002 (ip), vehicle: Klucel (hydroxypropylcellulose) (HPC)) was 101 % of control; the T/C (endpoint: mean survival time, dose: 400.0 mg/kg/injection, schedule: Q04DX002 (ip), vehicle: Klucel (hydroxypropylcellulose) (HPC)) was 101 % of control.

For `CCOCCN=Cc1ccccc1O.CCOCCN=Cc1ccccc1O.[Co]`, the T/C was 100 % of control (endpoint: mean survival time, dose: 50.0 mg/kg/injection, schedule: Q01DX001 (ip), vehicle: saline); 98 % of control under setting [11]; 96 % of control under setting [12].

As to `CCCCCCC(O)/C=C/c1ccc(Cl)cc1` (stereo not given), the T/C reads like this: under setting [4], 94 % of control; under setting [5], 91 % of control.

On to `Cn1cnc([N+](=O)[O-])c1Cl`, for which the T/C runs as follows: under setting [7], 102 % of control; under setting [8], 103 % of control; under setting [9], 94 % of control; under setting [10], 92 % of control; (endpoint: mean survival time, dose: 200.0 mg/kg/injection, schedule: Q04DX003 (ip), vehicle: saline) 102 % of control.

For the compound `C=CCc1cnc(C(F)(F)F)[nH]c1=O`, the T/C is 93 % of control (endpoint: mean survival time, dose: 25.0 mg/kg/injection, schedule: Q01DX001 (ip), vehicle: Klucel (hydroxypropylcellulose) (HPC)); 94 % of control (endpoint: mean survival time, dose: 50.0 mg/kg/injection, schedule: Q01DX001 (ip), vehicle: Klucel (hydroxypropylcellulose) (HPC)); 94 % of control (endpoint: mean survival time, dose: 100.0 mg/kg/injection, schedule: Q01DX001 (ip), vehicle: Klucel (hydroxypropylcellulose) (HPC)).

As for `COc1ccc(C(SCC(N)C(=O)O)(c2ccccc2)c2ccc(OC)cc2)cc1` (stereo not given), the T/C by setting is: (endpoint: mean survival time, dose: 3.13 mg/kg/injection, schedule: Q01DX009 (ip), vehicle: saline) 98 % of control; (endpoint: mean survival time, dose: 6.25 mg/kg/injection, schedule: Q01DX009 (ip), vehicle: saline) 120 % of control; (endpoint: mean survival time, dose: 6.3 mg/kg/injection, schedule: Q01DX009 (ip), vehicle: other) 110 % of control; (endpoint: mean survival time, dose: 12.5 mg/kg/injection, schedule: Q01DX009 (ip), vehicle: other) 117 % of control; under setting [6], 158 % of control; under setting [7], 96 % of control.
